According to patent publication US9018209B2, “Compounds and methods for the treatment of viruses and cancer” (Yale University, priority 2005, dated 2015):
Where two headings read alike, the source gives them in different places.

Experiments:
[1] = system: MT-2 human T-cells; assay: Cytotoxicity: inhibition of MT-2 cell growth; format: cell-based
Excerpt: The preparation of the analogues 4a-h involved the reaction between 2-bromothiazole 1 with the corresponding 5-amino-2-R-phenol 2, followed by reaction with 4-bromo-2-methyl-2-butene in presence of Cs2CO3 as a base (Scheme 1; see Table 1 for antiviral activities (EC50) and cytotoxicities (IC50) of these compounds, as determined using human MT-2 cells infected with IIIB strain of HIV-1).
See, Ruiz-Caro, supra. and Lin, et al., Biochem. Pharmacol. 1994, 47, 171-174.

[2] = system: IIIB strain of HIV-1; assay: Anti-HIV-1 activity: protection of infected MT-2 cells, MTT colorimetric method; format: cell-based; conditions: for fold lower potency (higher EC50) than the corresponding DMA ether: Table 2b compounds
[3] = Table 1B, for 50% inhibition of MT-2 cell growth, triplicate samples
[4] = Table 1B, for 50% protection in MT-2 cells, triplicate samples, NA for EC50 > CC50, read-out: EC50
[5] = Homo sapiens, MT2, Table 1a, cytotoxicity, MT-2 cells, read-out: IC50
[6] = Table of bicyclic-heteroaryl phenyl amines, cytotoxicity, MT-2 cell assays, read-out: IC50
[7] = Table of bicyclic-heteroaryl phenyl amines, MT-2 cell assays, read-out: EC50
[8] = Table 2b, derivatives of pyrimidine 11, NA for EC50 > CC50, read-out: EC50
[9] = Homo sapiens, MT2, Table 3, cytotoxicity, MT-2 cells, read-out: IC50
[10] = Homo sapiens, MT2, Table of bicyclic-heteroaryl phenyl amines, cytotoxicity, MT-2 cell assays, read-out: IC50
[11] = Human immunodeficiency virus 1, IIIB, MT2, Table of bicyclic-heteroaryl phenyl amines, MT-2 cell assays, read-out: EC50
[12] = Human immunodeficiency virus 1, IIIB, MT2, Table 1a, heteroaryl derivatives, N/A read as no activity, read-out: EC50
[13] = Table 3, cytotoxicity, MT-2 cells, read-out: IC50
[14] = Table 3, thiazoles 18-23, N/A read as no activity, read-out: EC50
[15] = Table 1, cytotoxicity, MT-2 cells, read-out: IC50

Compound: CC1=C(COc2cc(Nc3ncccn3)ccc2Cl)CCC1 [Compound 47]
- IC50 ([1]; Table 2a, cytotoxicity, MT-2 cells, read-out: IC50): 2500 nM

Compound: COc1cc(OC)nc(Nc2ccc(C#N)c(OCC=C(C)C)c2)n1 [Compound 10h]
- CC50 [1, 3]: 810 nM
- EC50 [2, 4]: 160 nM

Compound: CC(C)=CCOc1cc(Nc2ccccn2)ccc1C#N [Compound 30h, N-(4-Cyano-3-(3-methylbut-2-enyloxy)phenyl)pyridin-2-amine]
- IC50 [1, 5]: 290 nM

Compound: CC(C)=CCOc1cc(Nc2nccc3ccccc23)ccc1C#N [isoquinoline 62b]
- IC50 [1, 6]: 4400 nM
- EC50 [2, 7]: 3 nM

Compound: COc1nc(C)nc(Nc2ccc(Cl)c(OCC=C(C)C)c2)n1 [Compound 7g]
- CC50 [1, 3]: 12000 nM
- EC50 [2, 4]: 100 nM

Compound: CSc1ncnc(Nc2ccc(C#N)c(OCC=C(C)C)c2)n1 [Compound 8i]
- CC50 [1, 3]: 8400 nM
- EC50 [2, 4]: 5 nM

Compound: C/C=C/COc1cc(Nc2nccc(OC)n2)ccc1Cl [Compound 11c]
- CC50 ([1]; Table 2b, MT-2 cells): 17000 nM
- fold lower potency (higher EC50) than the corresponding DMA ether [2]: ca. 10 fold
- EC50 [2, 8]: 89 nM

Compound: COc1nc(Nc2ccc(C#N)c(OCC=C(C)C)c2)nc(OC)n1 [Compound 8h]
- CC50 [1, 3]: > 100000 nM
- EC50 [2, 4]: 22 nM

Compound: Clc1ccc(Nc2nccs2)cc1OCC1CCCCC1 [Compound 22d, N-(4-Chloro-3-(cyclohexylmethoxy)phenyl)thiazol-2-amine]
- IC50 [1, 9]: 12000 nM

Compound: N#Cc1ccc(Nc2nccs2)cc1OC1=CCCC1 [Compound 20h, N-(4-Cyano-3-(cyclopentenyloxy)phenyl)thiazol-2-amine]
- IC50 [1, 9]: 1700 nM

Compound: CC(C)=CCOc1cc(Nc2nccc3cccn23)ccc1Cl [compound 59]
- IC50 [1, 10]: 17000 nM
- EC50 [2, 11]: 130 nM

Compound: CC(C)=CCOc1cc(Nc2nccc3cc[nH]c23)ccc1Cl [compound 58]
- IC50 [1, 10]: 9200 nM
- EC50 [2, 11]: 900 nM

Compound: CNc1ccnc(Nc2ccc(C#N)c(OCC=C(C)C)c2)n1 [Compound 10d]
- CC50 [1, 3]: 22 nM
- EC50 [2, 4]: 5 nM

Compound: COc1ccnc(Nc2ccc(Cl)c(OCC=C(C)C)c2)n1 [Compound 42d, N-(4-Chloro-3-(3-methylbut-2-enyloxy)phenyl)-4-methoxypyrimidin-2-amine]
- IC50 [1, 5]: 9000 nM
- EC50 [2, 12]: 10 nM

Compound: Cc1ccnc2c1NC(=O)c1cccnc1N2C1CC1 [Nevirapine, nevirapine, reference compound]
- IC50 [1, 5]: > 10000 nM
- IC50 [1, 10]: > 10000 nM
- CC50 [1, 3]: > 10000 nM

Compound: Cc1cn([C@H]2C=C[C@@H](CO)O2)c(=O)[nH]c1=O [d4T, Stavudine, reference compound]
- EC50 ([2]; Human immunodeficiency virus 1, IIIB, text b104, read-out: anti-HIV activities in our assay): 3000 nM

Compound: COc1nc(N)nc(Nc2ccc(C#N)c(OCC=C(C)C)c2)n1 [Compound 8j]
- CC50 [1, 3]: 110 nM
- EC50 [2, 4]: 9 nM

Compound: COc1ccnc(Nc2ccc(C)c(OCC=C(C)C)c2)n1 [Compound 42b, 4-Methoxy-N-(4-methyl-3-(3-methylbut-2-enyloxy)phenyl)pyrimidin-2-amine]
- IC50 [1, 5]: 41000 nM
- EC50 [2, 12]: 320 nM

Compound: CCc1ccnc(Nc2ccc(Cl)c(OCC=C(C)C)c2)n1 [Compound 9p]
- CC50 [1, 3]: 330 nM
- EC50 [2, 4]: 16 nM

Compound: C/C=C/COc1cc(Nc2ncccn2)ccc1Cl [Compound 11a]
- CC50 ([1]; Table 2b, MT-2 cells): 31000 nM
- fold lower potency (higher EC50) than the corresponding DMA ether [2]: ca. 10 fold
- EC50 [2, 8]: 2300 nM

Compound: CC/C(C)=C\COc1cc(Nc2nccs2)ccc1Cl [Compound 18d, (E/Z)-N-(4-chloro-3-(3-methylpent-2-enyloxy)phenyl)thiazol-2-amine]
- IC50 [1, 13]: 18000 nM
- EC50 [2, 14]: 1000 nM

Compound: CC(C)=CCOc1cc(Nc2ccnc(N)n2)ccc1C [Compound 45b, N^4-(4-Methyl-3-(3-methylbut-2-enyloxy)phenyl)pyrimidin-2,4-diamine]
- IC50 [1, 5]: 600 nM

Compound: CCOC(=O)c1csc(Nc2ccc(C)c(OCC=C(C)C)c2)n1 [Compound 9b, Ethyl 2-(4-methyl-3-(3-methylbut-2-enyloxy)phenylamino)thiazole-4-carboxylate]
- IC50 ([1]; Homo sapiens, MT2): 11000 nM

Compound: CNc1ccnc(Nc2ccc(Cl)c(OCC=C(C)C)c2)n1 [Compound 9d]
- CC50 [1, 3]: 690 nM
- EC50 [2, 4]: 6 nM

Compound: COc1ccnc(Nc2ccc(Cl)c(Oc3ccccc3)c2)n1 [Compound 11d]
- CC50 ([1]; Table 2b, MT-2 cells): 38000 nM
- fold lower potency (higher EC50) than the corresponding DMA ether [2]: ca. 100 fold
- EC50 [2, 8]: 2500 nM

Compound: Cc1nccc(C(F)(F)F)n1 [Compound 49]
- IC50 [1, 5]: 2500 nM
- EC50 [2, 12]: 65 nM

Compound: CC(C)=CCOc1cc(Nc2nccc3ccccc23)ccc1Cl [isoquinoline 62a]
- IC50 [1, 6]: 19000 nM
- EC50 [2, 7]: 34 nM

Compound: CC(C)=CCOc1cc(Nc2nccc(N)n2)ccc1Cl [Compound 40d, N^2-(4-Chloro-3-(3-methylbut-2-enyloxy)phenyl)pyrimidin-2,4-diamine]
- IC50 [1, 5]: > 1000 nM
- EC50 [2, 12]: 75 nM

Compound: CSc1ccnc(Nc2ccc(Cl)c(OCC=C(C)C)c2)n1 [Compound 48]
- IC50 ([1]; Table 1a, cytotoxicity, MT-2 cells, read-out: IC50): 2800 nM
- EC50 ([2]; Table 1a, heteroaryl derivatives, N/A read as no activity, read-out: EC50): 180 nM

Compound: COc1ccnc(Nc2ccc(Cl)c(Oc3ccccc3C)c2)n1 [Compound 11e]
- CC50 ([1]; Table 2b, MT-2 cells): 13000 nM

Compound: N-(4-Chloro-3-(cyclopentenyloxy)phenyl)thiazol-2-amine [Compound 20d]
- IC50 [1, 13]: 15000 nM
- EC50 [2, 14]: 5000 nM

Compound: CC(C)=CCOc1cccc(Nc2nccs2)c1 [Compound 4a, N-(3-(3-methylbut-2-enyloxy)phenylthiazol)-2-amine]
- IC50 [1, 15]: 23000 nM
- EC50 ([2]; Table 1, compounds 4a-h, human MT-2 cells infected with IIIB strain of HIV-1, N/A read as no activity, read-out: EC50): 10000 nM

Compound: CC(C)=CCOc1cc(Nc2nccc(CO)n2)ccc1Cl [Compound 9m]
- CC50 [1, 3]: 220 nM

Compound: CC(C)=CC(C)Oc1cc(Nc2ncccn2)ccc1Cl (centres unmarked) [Compound 46, N-(4-chloro-3-(4-methylpent-3-en-2-yloxy)phenyl)pyrimidin-2-amine]
- IC50 ([1]; Homo sapiens, MT2, Table 2a, cytotoxicity, MT-2 cells, read-out: IC50): 22000 nM

Compound: CCCCCCCOc1cc(Nc2nccs2)ccc1Cl [Compound 23d, N-(4-Chloro-3-(hexylmethoxy)phenyl)thiazol-2-amine]
- IC50 [1, 9]: 15000 nM

Compound: CC(C)=CC(C)Oc1cc(Nc2nccs2)ccc1Cl (centres unmarked) [Compound 19d, N-(4-Chloro-3-(4-methylpent-3-en-2-yloxy)phenyl)thiazol-2-amine]
- IC50 [1, 9]: 22000 nM

Compound: Ethyl 2-(4-methoxy-3-(3-methylbut-2-enyloxy)phenylamino)thiazole-4-carboxylate [Compound 9c]
- EC50 [2, 4]: 75 nM

Compound: CC(C)=CCOc1cc(Nc2nc(C)cs2)ccc1C [Compound 8b, 4-Methyl-N-(4-methyl-3-(3-methylbut-2-enyloxy)phenyl)thiazol-2-amine]
- IC50 ([1]; Homo sapiens, MT2): 15000 nM

Compound: CCOC(=O)c1csc(Nc2cccc(OCC=C(C)C)c2)n1 [Compound 9a, Ethyl 2-(3-(3-methylbut-2-enyloxy)phenylamino)thiazole-4-carboxylate]
- IC50 ([1]; Homo sapiens, MT2): 21000 nM

Compound: CC1=C(COc2cc(Nc3nccs3)ccc2Cl)CCC1 [Compound 21d, N-(4-Chloro-3-((2-methylcyclopent-1-enyl)methoxy)phenyl)thiazol-2-amine]
- IC50 [1, 9]: 2500 nM

Compound: COc1nc(Cl)nc(Nc2ccc(Cl)c(OCC=C(C)C)c2)n1 [Compound 7f]
- CC50 [1, 3]: 26000 nM

Compound: COCc1ccnc(Nc2ccc(Cl)c(OCC=C(C)C)c2)n1 [Compound 9l]
- CC50 [1, 3]: > 25000 nM

Compound: Ethyl 2-(4-methyl-3-(3-methylbut-2-enyloxy)phenylamino)thiazole-4-carboxylate [Compound 9b]
- EC50 [2, 4]: 10 nM
- EC50 [2, 8]: 10 nM

Compound: CC(C)=CCOc1cc(Nc2ccnc(N)n2)ccc1Cl [Compound 45d, N^4-(4-Chloro-3-(3-methylbut-2-enyloxy)phenyl)pyrimidin-2,4-diamine]
- IC50 [1, 5]: 2000 nM

Compound: COc1ccc(Nc2nc(C)cs2)cc1OCC=C(C)C [Compound 8c, 4-Methyl-N-(4-methoxy-3-(3-methylbut-2-enyloxy)phenyl)thiazol-2-amine]
- IC50 ([1]; Homo sapiens, MT2): 18000 nM

Compound: Cc1cc(C#N)cc(C)c1Oc1nc(Nc2ccc(C#N)cc2)nc(N)c1Br [TMC125, etravirine, reference compound]
- IC50 [1, 10]: > 1000 nM
- CC50 [1, 3]: > 1000 nM

Compound: CC(C)=CCOc1cc(Nc2ncnc(Cl)n2)ccc1Cl [Compound 7a]
- CC50 [1, 3]: 45000 nM

Compound: (2-3-(3-Methylbut-2-enyloxy)phenylamino)thiazol-4-yl)methanol [Compound 10a]
- IC50 ([1]; Table 2, cytotoxicity, MT-2 cells, read-out: IC50): 38000 nM

Compound: CC(C)=CCOc1cc(Nc2ccccn2)ccc1C [Compound 30b, N-(4-Methyl-3-(3-methylbut-2-enyloxy)phenyl)pyridin-2-amine]
- IC50 [1, 5]: 35000 nM

Compound: CCCc1ccc(Nc2nccs2)cc1OCC=C(C)C [Compound 4f, N-(4-propyl-3-(3-methylbut-2-enyloxy)phenylthiazol)-2-amine]
- IC50 [1, 15]: 31000 nM

Compound: CC(C)=CCOc1cccc(Nc2nc(C)cs2)c1 [Compound 8a, 4-Methyl-N-(3-(3-methylbut-2-enyloxy)phenyl)thiazol-2-amine]
- IC50 ([1]; Homo sapiens, MT2): 26000 nM

Compound: CC(C)=CCOc1cc(Nc2ccccn2)ccc1Cl [Compound 30d, N-(4-Chloro-3-(3-methylbut-2-enyloxy)phenyl)pyridin-2-amine]
- IC50 [1, 5]: 15000 nM

Compound: CCOC(=O)c1csc(Nc2ccc(OC)c(OCC=C(C)C)c2)n1 [Compound 9c, Ethyl 2-(4-methoxy-3-(3-methylbut-2-enyloxy)phenylamino)thiazole-4-carboxylate]
- IC50 ([1]; Homo sapiens, MT2): 15000 nM
